This is an account of results in patent US20200407398A1, “Short Proline-Rich Lipopeptide Potentiates Minocycline and Rifampicin Against Multidrug-and Extensively Drug-Resistant Pseudomonas Aeruginosa” (priority 2018, published 2020).

Broadly, the MIC is the smallest concentration in the dilution series that meets the test's criterion for growth inhibition.

Test [1] concerns P. aeruginosa PAO1 (wild-type). Nature of the test: microbe, parasite or virus in culture. How it is done:
We evaluated the activity of SPRLPs in combination with fifteen clinically-used antibiotics against P. aeruginosa. Antibiotics tested included fluoroquinolones (moxifloxacin, ciprofloxacin and levofloxacin), aminoglycosides (gentamicin, tobramycin and amikacin), cephalosporins (ceftazidime and cefotaxime), carbapenems (meropenem and doripenem), aztreonam, rifampicin, minocycline, colistin and fosfomycin. The SPRLPs were screened initially at a fixed concentration of 8 μg/mL (5 μM) in combination with antibiotics against wild-type P. aeruginosa PAO1. We assessed potentiation by at least a four-fold absolute MIC reduction of the antibiotic, after which synergism was further validated by a conventional checkerboard assay. A fractional inhibitory concentration (FIC) index of ≤0.5, 0.5<x≤4 or >4 was interpreted as synergistic, indifferent or antagonistic interaction, respectively (31). FIC index was obtained by adding the FIC values of the antibiotic and the SPRLP adjuvant. FIC of antibiotics was calculated by dividing the MIC of the antibiotic in the presence of the adjuvant by the MIC of the antibiotic alone. Similarly, the FIC of adjuvant was calculated via dividing the MIC of the adjuvant in the presence of the antibiotic by the MIC of the adjuvant alone.
Microbroth dilution susceptibility test following the Clinical and Laboratory Standards Institute (CLSI) guidelines (32) was performed to assess the in vitro antibacterial activity of SPRLPs. Overnight grown bacterial cultures were diluted in saline to achieve a 0.5 McFarland turbidity, followed by 1:50 dilution in Mueller-Hinton broth (MHB) for inoculation to a final concentration of 5×10^5 colony forming units/mL. The assay was done on a 96-well plate to which the agents of interest were 2-fold serially diluted in MHB and incubated with equal volumes of inoculum at 37° C. for 18 hours. MIC was determined as the lowest concentration to inhibit visible bacterial growth in form of turbidity, which was confirmed using EMax Plus microplate reader (Molecular Devices, USA) at a wavelength of 590 nm. The well containing MHB broth with or without bacterial cells was used as positive or negative control, respectively.
The assay was performed on a 96-well plate, to which the agents of interest was 2-fold serially diluted in working MHB. Prior to serial dilution, SPRLP was added to the working MHB media so that a fixed final concentration of 8 μg/mL (5 μM) SPRLP per well was achieved. To ensure that the assay was working, the MIC determination test of the studied antibiotic (without SPRLP) was included on the same plate. Similar MIC results between the assay comparator and an independent MIC determination test (on a different plate) ensured validity of the synergy test. Overnight grown bacterial cultures were diluted in saline to 0.5 McFarland turbidity, followed by 1:50 dilution in MHB (without SPRLP) and inoculation into each well to a final concentration of approximately 5×10^5 colony forming units/mL. Wells containing only MHB (without SPRLP) with or without bacterial cells were used as positive or negative control, respectively. The plate was then incubated at 37° C. for 18 hours and examined for visible turbidity, to which was confirmed using EMax Plus microplate reader (Molecular Devices, USA) at a wavelength of 590 nm. A 4-fold or more MIC reduction of antibiotic in the presence of 8 μg/mL (5 μM) SPRLP denoted a positive synergy result and was further validated by a checkerboard assay.
The assay was done on a 96-well plate as previously described (40, 41). The agent of interest was 2-fold serially diluted along the x-axis, while the adjuvant was 2-fold serially diluted along the y-axis to create a matrix in which each well consist of a combination of both at different concentrations.

For test [2], the system named is K. pneumoniae ATCC 13883. The format is cell-based. An outline of the steps: (§1)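 CLSI microbroth dilution; MHB; inoculum 5×10^5 CFU/mL from 0.5 McFarland suspension diluted 1:50; 2-fold compound series; 37° C., 18 h; MIC = lowest concentration without visible growth, checked at 590 nm.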
In test [3] the test system is P. aeruginosa ATCC 27853. The format is cell-based. The gist of the method: as §1
The test system of test [4] is P. aeruginosa wild-type PAO1. The format is cell-based. The gist of the method:
as §1

For test [5], the system named is E. coli ATCC 25922. The format is cell-based. An outline of the steps:
as §1

Test [6] deals with E. faecium ATCC 27270. The format is cell-based. The gist of the method: as §1
In test [7] the test system is S. aureus ATCC 29213. The format is cell-based. An outline of the steps: as §1
In test [8] the test system is E. coli CAN-ICU 61714 (gentamicin-resistant). The format is cell-based. The gist of the method:
as §1

Test [9] concerns A. baumannii CAN-ICU 63169. The format is cell-based. An outline of the steps: as §1
Test [10] deals with P. aeruginosa CAN-ICU 62308 (gentamicin-resistant). The class given is cell-based. An outline of the steps:
as §1

Test [11] relates to methicillin-resistant S. aureus ATCC 33592. The class given is cell-based. An outline of the steps: as §1
Test [12] deals with methicillin-resistant S. epidermidis CAN-ICU 61589 (ceftazidime-resistant). The format is cell-based. The settings on record: methicillin-resistant CAN-ICU 61589 (ceftazidime-resistant). The gist of the method: as §1
The test system of test [13] is E. coli CAN-ICU 63074 (amikacin-intermediate resistant). The class given is cell-based. The gist of the method: as §1
Test [14] concerns E. faecalis ATCC 29212. The format is cell-based. An outline of the steps: as §1
Test [15] concerns P. aeruginosa CANWARD-2011 96846 (gentamicin-, tobramycin-resistant). The class given is cell-based. The gist of the method: as §1
The mark [16] stands for this setting: P. aeruginosa PAO1, degree of minocycline potentiation in the presence of 8 μg/mL (5 μM) lipopeptide.
The mark [17] stands for this setting: P. aeruginosa PAO1, degree of rifampicin potentiation in the presence of 8 μg/mL (5 μM) lipopeptide.

Molecules are shown by their SMILES. Square brackets hold non-standard residues; d marks the D form. Peptide text beside a SMILES is read from it. * marks the point of attachment. Lauroyl = CCCCCCCCCCCC(=O)*

In the case of `CCCCCCCCCCCC(=O)N1CCC[C@H]1C(=O)N[C@@H](CCCNC(=N)N)C(=O)N1CCC[C@H]1C(=O)N[C@@H](CCCNC(=N)N)C(=O)N1CCC[C@H]1C(=O)N[C@@H](CCCNC(=N)N)C(=O)N1CCC[C@H]1C(N)=O` [Compound C12-PRP, CH3(CH2)10CO-PRPRPRP-NH2] (Lauroyl-PRPRPRP-NH2), the Potentiation in test [1] (setting [16]) and in test [1] (setting [17]) was 8-fold in each case. Moreover, the “MIC (agent alone)” value in test [1] (PAO1) amounted to 128 mg/L. Besides, the MIC is above 128 mg/L in test [2]; above 128 mg/L in test [3]; 128 mg/L in test [4]; above 128 mg/L in test [5]; 128 mg/L in test [6]; 128 mg/L in test [7]. Also, the MIC in [8] was above 128 mg/L; in [9] it was above 128 mg/L; in test [10], above 128 mg/L; in test [11] it was above 128 mg/L; in [12] it was 128 mg/L; in [13] it was above 128 mg/L. The MIC in test [14] and in test [15] was above 128 mg/L in each case.

Consider `CCCCCCCCCCCC(=O)N1CCC[C@@H]1C(=O)N[C@H](CCCNC(=N)N)C(=O)N1CCC[C@@H]1C(=O)N[C@H](CCCNC(=N)N)C(=O)N1CCC[C@@H]1C(=O)N[C@H](CCCNC(=N)N)C(=O)N1CCC[C@@H]1C(N)=O` [C12-prp] (Lauroyl-[dP][dR][dP][dR][dP][dR][dP]-NH2), for which the “Absolute MIC MIN” value in [1] (P. aeruginosa PAO1, MIC of minocycline in the presence of 8 μg/mL (5 μM) lipopeptide) turned out to be 2 mg/L. Besides, the “Absolute MIC RMP” value in test [1] (P. aeruginosa PAO1, MIC of rifampicin in the presence of 8 μg/mL (5 μM) lipopeptide) is 1 mg/L. In addition, the “MIC (agent alone)” value in test [1] (P. aeruginosa PAO1, antibiotic or lipopeptide alone) was above 128 mg/L. The results for the Potentiation in test [1] (setting [16]) and in test [1] (setting [17]) were 4-fold and 8-fold, respectively.
